What was measured:
5α-reductase = 5α-reductase inhibitory efficacy: DHT produced in testosterone-stimulated dermal papilla cells (DHT ELISA); assay type: cell-based; conditions: 50 nM testosterone, 24 hours, produced DHT relative to control
Experimental: After seeding 1 ml of dermal papilla cells (DPCs) by 5×10^5/ml into each well of a 24-well plate, then incubating the same for 24 hours, each of the reaction products prepared according to procedures described in Examples 1 to 72 was added in amounts of 50 μg/ml, 10 μg/ml and 0 μg/ml, respectively, to individual wells. After 1 hour, the wells were subjected to stimulation using 50 nM testosterone (DMSO dissolved). The supernatant was discarded 24 hours after culturing, to thus obtain DPc pellets. A content of dihydrotestosterone (DHT) (DB52021, Hamburg, Germany) was determined by means of enzyme-linked immune-sorbent assay. DPCs cell pellets were seeded in an amount of 100 μL into each of Dihydrotestosterone (DHT) ELISA microtiter strips coated with rabbit anti-DHT antibody, 25 μL of DHT antiserum was seeded in every well, and subjected to a reaction at 2 to 8° C. for 15 to 20 hours, followed by washing the same three times. Thereafter, 100 μL of DHT-HRP enzyme conjugate was seeded in every well and reacted on a shaker at room temperature for 30 minutes, followed by washing the same three times. Furthermore, 100 μL of substrate was seeded in every well and reacted on a shaker at room temperature for 20 to 30 minutes. Then, the product was treated using 100 μL stop solution, and subjected to measurement of absorbance at 450 nm to express an amount of produced DHT by the absorbance (three times repeated). An amount of produced DHT relative to a control was calculated in terms of an inhibitory rate (%), and results thereof are shown in Table 3 below.

mice (C57BL/6, female) = assay: Assessment of anagen phase induction and promotion in shaved mice; assay type: in vivo
Experimental: Experimentation for effects of inducing and promoting an anagen phase (that is, hair growth period) was performed with 7 weeks-old mice (C57BL/6, female) widely used in assessment of activity for anagen phase induction. First, using an electric shaver, hair on the dorsal part of a mouse was removed. Each mouse was weighed and all mice were divided into groups, each group having five (5) mice, in order to uniformly disperse body weights of the mice. Hair cut regions were coated with an excipient, control and test medicine, respectively. In this regard, the excipient was 95% ethanol, the control was 2% minoxidil, and the test medicine used herein was the compound in Example 8 diluted with 95% ethanol to have a final concentration of 0.5%. Using a brush, each of the above test samples was sufficiently applied to the dorsal part of each mouse once per day.

[1] = 20 days after experimentation, topical once per day on shaved dorsal part, five mice per group, Minoxidil 2%, Example 8 0.5% in 95% ethanol

Row | Molecule | 5α-reductase inhibitory rate (%) (5α-reductase; sample concentration 10 μg/ml) | 5α-reductase inhibitory rate (%) (5α-reductase; sample concentration 50 μg/ml) | further results
1 | β-amyrin stearate [Compound in Example 8] | 48 | 63 | hair growth in the hair cut region (in words) (mice (C57BL/6, female); 0.5% in 95% ethanol, topical once per day, Table 4 and FIG. 1): rapid hair growth; Number of mouse graded + (improved) (mice (C57BL/6, female); [1]): 1; Number of mouse graded ++ (remarkably improved) (mice (C57BL/6, female); [1]): 3; Number of mouse graded ± (slightly improved) (mice (C57BL/6, female); [1]): 1
2 | glycyrrhetinic acid stearate [Compound in Example 35] | 24 | 39 | 
3 | ursolic acid stearate [Compound in Example 21] | 35 | 51 | 
4 | β-amyrin laurate [Compound in Example 6] | 43 | 59 | 
5 | C=C(C)C1CCC2(C(=O)O)CCC3(C)C(CCC4C5(C)CCC(OCCCCCCCC)C(C)(C)C5CCC43C)C12 (centres unmarked) [Compound in Example 65, O-octyl-betulinic acid] | 19 | 31 | 
6 | O-octadecyl-α-amyrin [Compound in Example 56] | 38 | 49 | 
7 | CCCCCCCCOC1CCC2(C)C(CCC3(C)C2CC=C2C4C(C)C(C)CCC4(C)CCC23C)C1(C)C (stereo not drawn) [Compound in Example 55, O-octyl-α-amyrin] | 24 | 38 | 
8 | β-amyrin behenate [Compound in Example 9] | 38 | 59 | 
9 | CCCCCCCCOC1CCC2(C)C(CCC3(C)C2CC=C2C4CC(C)(C)CCC4(C)CCC23C)C1(C)C (stereo not drawn) [Compound in Example 52, O-octyl-β-amyrin] | 28 | 43 | 
10 | O-octadecyl-β-amyrin [Compound in Example 54] | 35 | 48 | 
11 | C/C=C(\CC[C@@H](C)[C@H]1CC[C@H]2[C@@H]3CC=C4C[C@@H](O)CC[C@]4(C)[C@H]3CC[C@]12C)C(C)C [Compound in Example 48, fucosterol] | 12 | 19 | 
12 | C[C@H]1[C@H](C)CC[C@]2(C)CC[C@]3(C)C(=CC[C@@H]4[C@@]5(C)CC[C@@H](O)[C@](C)(C(=O)O)[C@@H]5CC[C@]43C)[C@H]12 [Compound in Example 29, β-boswellic acid] | 11 | 23 | 
13 | C=C(C)[C@@H]1CC[C@]2(C(=O)O)CC[C@]3(C)[C@H](CC[C@@H]4[C@@]5(C)CC[C@H](O)C(C)(C)[C@@H]5CC[C@]43C)[C@@H]12 [Compound in Example 32, betulinic acid] | 9 | 17 | 
14 | CCCCCCCCOC1CCC2(C)C(CCC3(C)C2CC=C2C4CC(C)(C)CCC4(C)CCC23C)C1(C)C(=O)O (stereo not drawn) [Compound in Example 63, O-octyl-α-boswellic acid] | 21 | 34 | 
15 | CC(=O)O[C@H]1CC[C@]2(C)[C@H]3CC=C4[C@@H]5CC(C)(C)CC[C@]5(C)CC[C@@]4(C)[C@]3(C)CC[C@H]2C1(C)C [Compound in Example 2, β-amyrin acetate] | 21 | 34 | 
16 | CCCCCOC1CCC2(C)C(CCC3(C)C2CC=C2C4CC(C)(C)CCC4(C)CCC23C)C1(C)C (stereo not drawn) [Compound in Example 51, O-pentyl-β-amyrin] | 22 | 38 | 
17 | CCCCCCCC(=O)OC1CCC2(C)C(CCC3(C)C2CC=C2C4C(C)C(C)CCC4(C(=O)O)CCC23C)C1(C)C (centres unmarked) [Compound in Example 20, ursolic acid octanoate] | 31 | 46 | 
18 | COC1CCC2(C)C(CCC3(C)C2CC=C2C4CC(C)(C)CCC4(C)CCC23C)C1(C)C (stereo not drawn) [Compound in Example 50, O-methyl-β-amyrin] | 16 | 31 | 
19 | CCCCCCCC(=O)OC1CCC2(C)C(CCC3(C)C2CC=C2C4C(C)C(C)CCC4(C)CCC23C)C1(C)C (stereo not drawn) [Compound in Example 12, α-amyrin octanoate] | 35 | 49 | 

Row | Molecule | 5α-reductase inhibitory rate (%) (5α-reductase; sample concentration 10 μg/ml) | 5α-reductase inhibitory rate (%) (5α-reductase; sample concentration 50 μg/ml) | further results
20 | CCCCCCCC(=O)OC1CCC2(C)C(CCC3(C)C2CC=C2C4CC(C)(C)CCC4(C(=O)O)CCC23C)C1(C)C (centres unmarked) [Compound in Example 24, oleanolic acid octanoate] | 21 | 39 | 
21 | α-boswellic acid stearate [Compound in Example 28] | 37 | 51 | 
22 | betulinic acid stearate [Compound in Example 33] | 31 | 51 | 
23 | desmosterol stearate [Compound in Example 39] | 26 | 41 | 
24 | CCCCCCCCOC1CCC2(C)C(=CCC3C2CCC2(C)C(C(C)CCC(C)C(C)C)CCC32)C1 (centres unmarked) [Compound in Example 70, O-octyl-campesterol] | 28 | 51 | 
25 | CCCCCCCC(=O)OC1CCC2(C)C(=CCC3C2CCC2(C)C(C(C)CCC(CC)C(C)C)CCC32)C1 (stereo not drawn) [Compound in Example 16, β-sitosterol octanoate] | 28 | 39 | 
26 | O-octadecyl-oleanolic acid [Compound in Example 62] | 29 | 51 | 
27 | CCCCCCCC(=O)OC1CCC2(C)C(CCC3(C)C2CC=C2C4CC(C)(C)CCC4(C)CCC23C)C1(C)C (stereo not drawn) [Compound in Example 5, β-amyrin octanoate] | 41 | 57 | 
28 | O-octyl-β-boswellic acid [Compound in Example 64] | 35 | 51 | 
29 | CCCCC(CC)C(=O)OC1CCC2(C)C(CCC3(C)C2CC=C2C4CC(C)(C)CCC4(C)CCC23C)C1(C)C (stereo not drawn) [Compound in Example 4, β-amyrin 2-ethylhexanoate] | 36 | 54 | 
30 | CC(C)CCC[C@@H](C)[C@H]1CC[C@H]2[C@@H]3CC=C4C[C@@H](O)CC[C@]4(C)[C@H]3CC[C@]12C [Compound in Example 40, cholesterol] | 15 | 17 | 
31 | oleanolic acid acetate [Compound in Example 23] | 11 | 23 | 
32 | CCCCCCCCCCCCCCCCCC(=O)O[C@H]1CC[C@@]2(C)C(=CC[C@H]3[C@@H]4CC[C@H]([C@H](C)/C=C/[C@@H](CC)C(C)C)[C@@]4(C)CC[C@@H]32)C1 [Compound in Example 43, Stigmasterol stearate] | 31 | 41 | 
33 | CCCCCCCCCCCCCCCC(=O)O[C@H]1CC[C@]2(C)[C@H]3CC=C4[C@@H]5CC(C)(C)CC[C@]5(C)CC[C@@]4(C)[C@]3(C)CC[C@H]2C1(C)C [Compound in Example 7, β-amyrin palmitate] | 53 | 67 | 
34 | dihydroandrosterone stearate [Compound in Example 37] | 24 | 38 | 
35 | CC[C@H](CC[C@@H](C)[C@H]1CC[C@H]2[C@@H]3CC=C4C[C@@H](O)CC[C@]4(C)[C@H]3CC[C@]12C)C(C)C [Compound in Example 14, β-sitosterol] | 11 | 26 | 
36 | O-dodecyl-β-amyrin [Compound in Example 53] | 31 | 41 | 
37 | Nc1cc(N2CCCCC2)nc(N)[n+]1[O-] [Minoxidil, minoxidil, reference compound] |  |  | Number of mouse graded + (improved) (mice (C57BL/6, female); [1]): 1; Number of mouse graded ++ (remarkably improved) (mice (C57BL/6, female); [1]): 2; Number of mouse graded ± (slightly improved) (mice (C57BL/6, female); [1]): 1; Number of mouse graded − (not changed) (mice (C57BL/6, female); [1]): 1

Reference: patent US20150246058A1, “COMPOSITION FOR PREVENTING HAIR LOSS AND ACCELERATING HAIR GROWTH” (RNS CO., LTD., priority 2012, published 2015)
